In paper PMC6677754, “In silico design and optimization of selective membranolytic anticancer peptides” (Scientific Reports, 2019):
Where two headings read alike, the source gives them in different places. Peptide text beside a SMILES is read from it.

Columns and labels:
[1] = tested on: A549 lung adenocarcinoma cell line; test: Cell viability assay (MTT); format: cell-based, human
Experimental: (§1) 10% fetal bovine serum and 1% penicillin-streptomycin (Thermo Fisher Scientific, Waltham, MA, USA). The cultures were kept at 37°C in a 5% CO2 atmosphere incubator (Thermo Fisher Scientific, Waltham, MA, USA) and split every two to three days to new culture flasks. Cells no older than 20 passages were used for experiments.
(§2) For splitting, the cell culture media was aspirated, the cells were washed with 0.01 M phosphate buffered saline (PBS, Gibco, Thermo Fisher Scientific, Waltham, MA, USA) and trypsin-EDTA (trypsin - ethylene diamine tetraacetic acid, Fisher scientific, UK) was added to the cell layer to detach them from the flask surface. After incubation for 2 min at 37°C, cells were resuspended with an equal volume of DMEM media and centrifuged at 310 g for 5 min at 4°C. After removal of the supernatant the cells were resuspended in DMEM cell media and split into new cell culture flasks at a 1/3 to 1/5 ratio.
(§3) Determination of the anticancer peptides half effective concentration (EC50) was performed by a 3-(4,5-dimethylthiazol-2-yl)-2,5-diphenyltetrazolium bromide (MTT) assay, as described elsewhere21. Briefly, […] were seeded in each well of a 96-well plate and left to adhere and […]
(§4) sulfoxide (DMSO, Fisher Scientific, UK) at an intermediate concentration of 1 mM. The peptides were then diluted in a 2-fold dilution series starting at 100 μM with DMEM culture media. Cells were incubated with the peptide solutions for 24 h. After this time, the cell media was removed and the cells were incubated for 1 h with a 0.5 mg mL−1 MTT solution to allow enough time for formazan crystal formation (Sigma Aldrich, Steinheim, Germany). The supernatant was removed and 100 μL of DMSO were added into each well to resuspend the formazan crystals.
(§5) After manually shaking the plates to completely dissolve the crystals, the absorbance was measured at 540 nm in a Tecan Infinity M1000 spectrophotometer. The cell viability was determined based on the quantification of the color intensity in each culture well, considering the absorbance obtained by the control media without peptides as a 100% survival. The resultant sigmoidal curves were analyzed with the drc22 R package using a log-logistic model

[2] = tested on: MCF7 breast adenocarcinoma cell line; test: Cell viability assay (MTT); format: cell-based, human; settings: 10^4 cells per well, 24 h with peptide, 2-fold dilution series from 100 µM in DMEM, absorbance 540 nm, mean ± std, N = 3
Experimental: as §1, §2, §3, §4, §5

[3] = MTT, 10^4 cells per well, 24 h with peptide, 2-fold dilution series from 100 µM in DMEM, absorbance 540 nm, mean ± std, N = 3, read-out: A549 EC50/µM

SMILES | EC50 [1, 3] [µM] | EC50 [2] [µM] | EC50 ([1]; Fig. S11, experimental replicate 1 (top panel), fit value (error in brackets), N = 6 technical replicates, MTT 24 h, read-out: EC50) [µM] | EC50 ([1]; Fig. S11, experimental replicate 2 (middle panel), fit value (error in brackets), N = 6 technical replicates, MTT 24 h, read-out: EC50) [µM] | EC50 ([1]; Fig. S11, experimental replicate 3 (bottom panel), fit value (error in brackets), N = 6 technical replicates, MTT 24 h, read-out: EC50) [µM]
CC[C@H](C)[C@H](NC(=O)[C@H](Cc1ccc(O)cc1)NC(=O)[C@H](CC(N)=O)NC(=O)[C@H](CC(C)C)NC(=O)[C@H](CCC(=O)O)NC(=O)[C@H](CCC(=O)O)NC(=O)[C@H](CCCCN)NC(=O)[C@@H](NC(=O)[C@H](CO)NC(=O)[C@H](Cc1c[nH]cn1)NC(=O)[C@H](CCCNC(=N)N)NC(=O)[C@H](Cc1ccccc1)NC(=O)[C@H](C)N)C(C)C)C(=O)N[C@@H](CCCNC(=N)N)C(=O)N[C@@H](CCCNC(=N)N)C(=O)N[C@@H](CCCNC(=N)N)C(=O)N[C@@H](CC(C)C)C(=O)N[C@@H](CCC(=O)O)C(=O)N[C@@H](CCCNC(=N)N)C(=O)N[C@@H](Cc1ccccc1)C(=O)N1CCC[C@H]1C(=O)N[C@@H](CC(N)=O)C(=O)N[C@@H](CCCNC(=N)N)C(=O)N[C@@H](CC(C)C)C(N)=O [AmphiArc3] (H-AFRHSVKEELNYIRRRLERFPNRL-NH2; N-terminus assumed) | > 50 | > 50 | – | – | –
CC[C@H](C)[C@H](NC(=O)[C@H](Cc1c[nH]c2ccccc12)NC(=O)[C@@H](NC(=O)[C@H](CCCNC(=N)N)NC(=O)[C@@H](NC(=O)[C@H](Cc1c[nH]c2ccccc12)NC(=O)[C@@H](N)CCCCN)C(C)C)[C@@H](C)CC)C(=O)N[C@@H](CCCCN)C(=O)N[C@H](C(=O)N[C@@H](CC(C)C)C(=O)N[C@@H](CCCNC(=N)N)C(=O)NCC(=O)N[C@@H](CC(C)C)C(=O)N[C@@H](Cc1ccccc1)C(=O)N[C@H](C(=O)N[C@@H](Cc1c[nH]c2ccccc12)C(=O)N[C@H](C(=O)N[C@@H](Cc1c[nH]c2ccccc12)C(=O)N[C@@H](Cc1ccccc1)C(=O)N[C@@H](Cc1ccccc1)C(N)=O)C(C)C)C(C)C)C(C)C [Gradient1] (H-KWVRIWIKVLRGLFVWVWFF-NH2; N-terminus assumed) | > 50 | > 50 | – | – | –
CC[C@H](C)[C@H](NC(=O)[C@H](C)NC(=O)[C@H](Cc1c[nH]c2ccccc12)NC(=O)[C@H](CC(C)C)NC(=O)CN)C(=O)N[C@@H](C)C(=O)N[C@H](C(=O)N[C@@H](CCCCN)C(=O)N[C@@H](C)C(=O)NCC(=O)N[C@@H](CCCCN)C(=O)N[C@H](C(=O)N[C@H](C(=O)N[C@@H](CC(C)C)C(=O)N[C@@H](CCCCN)C(=O)N[C@@H](CC(C)C)C(=O)N[C@H](C(=O)N[C@H](C(=O)N[C@@H](Cc1ccccc1)C(=O)N[C@H](C(=O)N[C@@H](Cc1c[nH]c2ccccc12)C(=O)N[C@H](C(=O)N[C@@H](CCCNC(=N)N)C(=O)N[C@H](C(N)=O)C(C)C)[C@@H](C)CC)[C@@H](C)CC)C(C)C)[C@@H](C)CC)[C@@H](C)CC)C(C)C)C(C)C [Helical2] (H-GLWAIAVKAGKVILKLIVFIWIRV-NH2; N-terminus assumed) | > 50 | > 50 | – | – | –
CC[C@H](C)[C@H](NC(=O)[C@H](CC(C)C)NC(=O)[C@H](CCCCN)NC(=O)[C@H](CC(C)C)NC(=O)[C@@H](NC(=O)[C@H](C)NC(=O)CNC(=O)[C@H](C)NC(=O)[C@H](CC(C)C)NC(=O)[C@H](CCCCN)NC(=O)CNC(=O)[C@H](CC(C)C)NC(=O)[C@H](CCCCN)NC(=O)[C@@H](NC(=O)[C@H](Cc1c[nH]c2ccccc12)NC(=O)[C@H](CC(C)C)NC(=O)[C@@H](N)Cc1ccccc1)[C@@H](C)CC)C(C)C)C(=O)N[C@@H](CC(C)C)C(=O)NCC(=O)N[C@@H](CC(C)C)C(=O)N[C@@H](CCCCN)C(=O)N[C@@H](CCCCN)C(=O)N[C@H](C(=O)N[C@H](C(N)=O)C(C)C)C(C)C [Helical1] (H-FLWIKLGKLAGAVLKLILGLKKVV-NH2) | 8.3 ± 2 | 4.4 ± 1.3 | – | – | –
CC[C@H](C)[C@H](NC(=O)[C@H](CC(N)=O)NC(=O)[C@@H]1CCCN1C(=O)[C@@H](NC(=O)[C@H](C)NC(=O)[C@H](C)NC(=O)[C@H](CC(N)=O)NC(=O)[C@@H](NC(=O)[C@@H](N)CCCNC(=N)N)C(C)C)[C@@H](C)CC)C(=O)N[C@H](C(=O)N[C@H](C(N)=O)C(C)C)[C@@H](C)CC [Gradient4] (H-RVNAAIPNIIV-NH2; N-terminus assumed) | > 50 | > 50 | – | – | –
CC[C@H](C)[C@H](NC(=O)[C@@H](NC(=O)[C@H](CC(=O)O)NC(=O)[C@H](Cc1ccccc1)NC(=O)[C@H](CC(C)C)NC(=O)CN)C(C)C)C(=O)NCC(=O)N[C@@H](CO)C(=O)N[C@@H](CCC(N)=O)C(=O)N[C@@H](C)C(=O)NCC(=O)NCC(=O)N[C@@H](C)C(=O)N[C@@H](C)C(=O)N1CCC[C@H]1C(=O)N[C@@H](Cc1c[nH]cn1)C(=O)N[C@@H](Cc1ccccc1)C(=O)N[C@@H](CC(C)C)C(=O)NCC(N)=O [Helical4] (H-GLFDVIGSQAGGAAPHFLG-NH2; N-terminus assumed) | > 50 | > 50 | – | – | –
CC[C@H](C)[C@H](NC(=O)[C@H](CC(=O)O)NC(=O)[C@H](CC(C)C)NC(=O)[C@H](CC(C)C)NC(=O)CN)C(=O)N[C@@H](C)C(=O)NCC(=O)NCC(=O)N[C@@H](CC(N)=O)C(=O)N[C@@H](C)C(=O)N[C@@H](CCC(=O)O)C(=O)N[C@H](C(=O)N[C@@H](CC(C)C)C(=O)N[C@@H](C)C(=O)NCC(=O)N[C@@H](Cc1c[nH]cn1)C(=O)N[C@@H](C)C(=O)N[C@H](C(N)=O)C(C)C)[C@@H](C)O [Helical3] (H-GLLDIAGGNAETLAGHAV-NH2; N-terminus assumed) | > 50 | > 50 | – | – | –
CC[C@H](C)[C@H](NC(=O)[C@@H](NC(=O)[C@H](CC(C)C)NC(=O)[C@@H](NC(=O)[C@H](CC(N)=O)NC(=O)[C@H](CCC(=O)O)NC(=O)[C@H](Cc1ccccc1)NC(=O)[C@H](CC(N)=O)NC(=O)[C@H](CC(=O)O)NC(=O)[C@@H](NC(=O)[C@@H](NC(=O)[C@@H](N)CCCCN)C(C)C)C(C)C)[C@@H](C)CC)[C@@H](C)CC)C(N)=O [Gradient3] (H-KVVDNFENILII-NH2; N-terminus assumed) | > 50 | > 50 | – | – | –
CC[C@H](C)[C@H](NC(=O)[C@H](CO)NC(=O)[C@H](CCC(N)=O)NC(=O)[C@H](CC(C)C)NC(=O)[C@H](CCCNC(=N)N)NC(=O)[C@H](CCCCN)NC(=O)[C@H](CCCNC(=N)N)NC(=O)[C@H](CC(C)C)NC(=O)CNC(=O)[C@H](CC(N)=O)NC(=O)[C@H](CCC(=O)O)NC(=O)[C@@H](NC(=O)[C@@H](N)CCCNC(=N)N)[C@@H](C)CC)C(=O)N[C@@H](Cc1ccc(O)cc1)C(=O)N[C@@H](CCCNC(=N)N)C(=O)N[C@@H](Cc1c[nH]cn1)C(=O)N[C@@H](CC(C)C)C(=O)N[C@@H](CCC(=O)O)C(=O)N[C@@H](CCC(=O)O)C(N)=O [AmphiArc4] (H-RIENGLRKRLQSIYRHLEE-NH2; N-terminus assumed) | > 50 | > 50 | – | – | –
CC[C@H](C)[C@H](NC(=O)[C@H](CCCNC(=N)N)NC(=O)[C@H](CCCCN)NC(=O)[C@H](CC(C)C)NC(=O)[C@H](Cc1c[nH]c2ccccc12)NC(=O)[C@H](C)N)C(=O)N[C@@H](CCCCN)C(=O)N[C@@H](CCCCN)C(=O)N[C@@H](Cc1ccccc1)C(=O)N[C@@H](CC(C)C)C(=O)N[C@@H](CCCCN)C(=O)N[C@@H](C)C(=O)N[C@@H](CC(C)C)C(=O)N[C@@H](Cc1ccccc1)C(=O)N[C@@H](Cc1c[nH]c2ccccc12)C(=O)N[C@H](C(=O)N[C@@H](Cc1c[nH]c2ccccc12)C(=O)N[C@H](C(=O)N[C@@H](Cc1c[nH]c2ccccc12)C(N)=O)C(C)C)C(C)C [Gradient2] (H-AWLKRIKKFLKALFWVWVW-NH2) | > 50 | 19 ± 1.8 | 107 | 152 | 487
CC[C@H](C)[C@H](NC(=O)[C@H](Cc1c[nH]c2ccccc12)NC(=O)[C@H](CCCNC(=N)N)NC(=O)[C@H](CCCNC(=N)N)NC(=O)[C@H](CC(C)C)NC(=O)[C@H](Cc1c[nH]c2ccccc12)NC(=O)[C@H](CC(N)=O)NC(=O)[C@H](Cc1c[nH]cn1)NC(=O)[C@@H](NC(=O)[C@H](CCCCN)NC(=O)[C@H](CCCCN)NC(=O)[C@@H](NC(=O)[C@H](Cc1c[nH]c2ccccc12)NC(=O)[C@@H](N)CCCCN)C(C)C)C(C)C)C(=O)N[C@@H](CCCCN)C(=O)N[C@H](C(=O)N[C@@H](Cc1ccccc1)C(=O)N[C@@H](CCC(=O)O)C(=O)N[C@@H](C)C(=O)N[C@@H](CC(C)C)C(=O)N[C@@H](Cc1ccccc1)C(=O)NCC(N)=O)C(C)C [AmphiArc1] (H-KWVKKVHNWLRRWIKVFEALFG-NH2) | 18.4 ± 0.7 | 7 ± 0.5 | – | – | –
